Laboratory results from US10676429B2, “Sulfamoyl-arylamides and the use thereof as medicaments for the treatment of hepatitis B” (priority 2012, dated 2020).

Experiments:
HBV [1] = experiment: Anti-HBV activity in stable transfected HepG2.2.15 cell line (HBV DNA from secreted virions, realtime PCR); type: cell-based; conditions: Hepatitis B virus, HepG2.2.15, 144 h, HepG2.2.15 cells, 6 days of treatment, secreted virion HBV DNA; read-out: HepG2 2.15 EC50
HBV [2] = experiment: Anti-HBV activity in HepG2.117 cell line (Tet-off, intracellular HBV DNA, realtime PCR); type: cell-based; conditions: Hepatitis B virus, HepG2.117, 72 h, HepG2.117 cells, 3 days of treatment, intracellular HBV DNA; read-out: HepG2 117 EC50
[3] = Cytotoxicity in HepG2 cells, 4 days, Resazurin assay; conditions: human, HepG2 cells

SMILES | EC50 (HBV [1]) [nM] | EC50 (HBV [2]) [nM] | CC50 at 4 days [3] [nM]
Cc1ccc(S(=O)(=O)NC2(C)COC2)c(F)c1C(=O)Nc1ccc(F)c(Cl)c1 [Compound 195] | 270 | 180 | > 25000
O=C(Nc1ccc(F)c(F)c1)c1c(F)ccc(S(=O)(=O)N[C@H]2CCOC2)c1F [Compound 196] | 130 | 70 | > 25000
O=C(Nc1ccc(F)c(Cl)c1)c1c(F)ccc(S(=O)(=O)N[C@H]2CCOC2)c1F [Compound 201] | 60 | 60 | > 25000
CC1(NS(=O)(=O)c2cc(Cl)cc(C(=O)Nc3ccc(F)c(C(F)F)c3)c2F)COC1 [Compound 217] | 200 | 600 | > 25000
CC1(NS(=O)(=O)c2cccc(C(=O)Nc3ccc(F)c(C(F)F)c3)c2F)COC1 [Compound 218] | 120 | 100 | > 25000
O=C(Nc1ccc(F)c(C(F)F)c1)c1cccc(S(=O)(=O)N[C@H]2CCOC2)c1F [Compound 220] | 110 | 90 | > 25000
Cc1cc(NC(=O)c2cccc(S(=O)(=O)NC3(C)COC3)c2F)ccc1F [Compound 222] | 50 | 100 | > 25000
Cc1cc(NC(=O)c2cccc(S(=O)(=O)NC(C)Cc3ccncc3)c2)ccc1F (stereo not drawn) [Compound 224] | 160 | 760 | > 25000
Cc1cc(NC(=O)c2cccc(S(=O)(=O)N[C@H](C)C(F)(F)F)c2)ccc1F [Compound 225] | 90 | 1340 | > 25000
Cc1cc(NC(=O)c2cccc(S(=O)(=O)N[C@@H](C)C(F)(F)F)c2)ccc1F [Compound 226] | 270 | 1900 | > 25000
Cc1cc(NC(=O)c2cccc(S(=O)(=O)NCC(F)F)c2)ccc1F [Compound 227] | 160 | 710 | > 25000
Cc1cc(NC(=O)c2cccc(S(=O)(=O)NCC(F)(F)F)c2)ccc1F [Compound 228] | 170 | 1190 | > 25000
Cc1cc(NC(=O)c2cccc(S(=O)(=O)NC3CCC(F)(F)C3)c2)ccc1F (stereo not drawn) [Compound 229] | 200 | 490 | > 25000
Cc1cc(NC(=O)c2cc(S(=O)(=O)NC(C)C)oc2C)ccc1F [Compound 230] | 730 | 1520 | > 25000
Cc1cc(NC(=O)c2ccc(S(=O)(=O)NC3(C)COC3)o2)ccc1F [Compound 231] | 210 | 320 | > 25000
CC1(NS(=O)(=O)c2ccc(Cl)c(C(=O)Nc3ccc(F)c(C(F)(F)F)c3)c2)COC1 [Compound 233] | > 1000 | > 1000 | > 25000
CC1(NS(=O)(=O)c2ccc(Cl)c(C(=O)Nc3ccc(F)c(F)c3)c2)COC1 [Compound 234] | 720 | 340 | > 25000
CC1(NS(=O)(=O)c2ccc(Cl)c(C(=O)Nc3ccc(F)c(C(F)F)c3)c2)COC1 [Compound 235] | 830 | 330 | > 25000
Cc1cc(NC(=O)c2cc(S(=O)(=O)N[C@H]3CCOC3)ccc2F)ccc1F [Compound 236] | 480 | 1580 | > 25000
Cc1cc(NC(=O)c2cc(S(=O)(=O)N[C@H]3CCOC3)ccc2Br)ccc1F [Compound 237] | 430 | 130 | > 25000
Cc1ccc(S(=O)(=O)NC2(C)COC2)cc1C(=O)Nc1ccc(F)c(C(F)(F)F)c1 [Compound 238] | 610 | 500 | > 25000
Cc1cc(NC(=O)c2ccc(F)c(S(=O)(=O)N[C@H]3CCOC3)c2)ccc1F [Compound 239] | 480 | 530 | > 25000
Cc1cc(NC(=O)c2cc(F)cc(S(=O)(=O)NC(C)C)c2)ccc1F [Compound 240] | 400 | 2860 | > 25000
Cc1cc(NC(=O)c2cc(F)cc(S(=O)(=O)N[C@H]3CCOC3)c2)ccc1F [Compound 241] | 380 | 1790 | > 25000
Cc1cc(NC(=O)c2cc(S(=O)(=O)N[C@H]3CCOC3)ccc2C(F)(F)F)ccc1F [Compound 242] | 1910 | 1800 | > 25000
